The text below walks through data of patent US20210100905A1, “APPLICATION OF COMPOUND OR TRADITIONAL CHINESE MEDICINE EXTRACT IN PREPARATION OF NUCLEIC ACID DELIVERY AGENT, AND RELATED PRODUCTS” (INSTITUTE OF BASIC MEDICAL SCIENCES CHINESE ACADEMY OF …, priority 2018, published 2021).

Assay [1] concerns A549 cell (human lung adenocarcinoma cell). Briefly: In vitro delivery of lipid nucleic acid mixture, RT-qPCR of intracellular small RNA. The assay is classed as cell-based. The note with it: for delivery of HJT-sRNA-m7 double-stranded RNA into A549 cells (real-time PCR): single lipid prepared by boiling or reverse evaporation method, RNA 100 nM, FIGS. 76, 91, 96, 99, 104, 106, 107. The protocol:
(§1) 3.1 NCI-N87 cell (gastric cancer cell), MRC-5 cell (lung fibroblast), A549 cell (lung cancer cell) were cultured to logarithmic growth phase, and then plated to a six-well plate at cell density of 1×10^6/2 mL medium/well; MRC-5 cell was cultured in Eagle's MEM medium (MEM, Gibco); A549 cell was cultured in Ham's F-12 medium (HyClone); NCI-N87 cell was cultured in RPMI-1640 medium (HyClone); followed by incubation overnight at 37° C., and the follow-up experiments were performed after the cells were attached to the walls.
(§2) 3.3 After co-incubation with the small RNA for 3 hours, the cells were washed 2-3 times with PBS. The cells were harvested with TRIzol lysis buffer, and the total RNA was extracted. The abundance of small RNA that entered cells was detected by RT-qPCR, and the localization of RNA was detected by fluorescence in situ hybridization; protocols of each detection method were as follows:
(§3) 1) The sRNA was reverse transcribed to cDNA: Reverse Transcription Kit (High-Capacity cDNA Reverse Transcription Kits, Applied Biosystems, cat. No. 4368813) was used to reverse transcribe sRNA into cDNA by stem-loop method, and the reverse transcription system was as follows: RNA template (150 ng/μl) 10 μl, 10×RT buffer, 2.0 μl, 25× dNTP Mix (100 mM) 0.8 μl, U6 RT stem-loop primer 2.0 μl, HJT-sRNA-RT-m7 stem-loop primer 2.0 μl, MultiScribe™ reverse transcriptase 1.0 μl, RNase inhibitor 1.0 μl, nuclease-free H2O 1.2 μl, loaded into a PCR reactor after brief centrifugation, the reaction conditions were as follows: (1) 25° C., 10 min; (2) 37° C., 120 min; (3) 85° C., 5 min; (4) 4° C., termination of the reaction. 20 μl RNase-free ddH2O was added to make up the final volume to 40 μl after the reaction. The stem-loop primer used in the reverse transcription process was synthesized by Beijing Tsingke Biotechnology Co., Ltd.
(§4) 2) Quantitative PCR amplification reaction: the qPCR reaction system has a total volume of 10 μl, containing: 5 μL 2×SYBR Green Master Mix, 0.5 μl forward primer ([…]), 0.5 μl reverse primer (10 μM), 1 μl cDNA by reverse transcription, 3 RNase-free dH2O. LightCycler 480 fluorescence quantitative PCR instrument was used, and the PCR reaction conditions were: 95° C. for 5 min for pre-denaturation, followed by PCR amplification cycle: (1) 95° C., 10 s; (2) 55° C., 10 s; (3) 72° C. , 20 s; a total of 40 cycles; 40° C. for 10 s in the end to cool down. Both the forward and reverse primers of the amplification reaction were designed and synthesized by Beijing Tsingke Biotechnology Co., Ltd.
(§5) 3) The relative expression level was calculated by 2-ΔCt method.
(§6) 100 μl lipid in diethyl ether solution was prepared, and grouped according to the lipid numbers shown in Table 1 (the lipid concentrations are shown in the table below). To the lipid solution was added 20 μl nucleic acid solution (HJT sRNA or siRNA) at the volume ratio of 5:1, and sonicated for after 3 min. The diethyl ether was removed by evaporation at 55° C., and then 100 μl DEPC water was added for hydration to give nucleic acid lipid mixture.
(§7) 100 μL of the nucleic acid solution (HJT sRNA or siRNA) was added to 2-5 μL of the lipid in chloroform (the concentration was shown in Table 1), mixed, and heated at 80-100° C. for 15-30 min to give nucleic acid lipid mixture.
(§8) 3.1.1 MRC-5 cell (pulmonary embryonic fibroblast), A549 cell (human lung adenocarcinoma cell), Caco-2 cell (human colon adenocarcinoma cell) (purchased from the Cell Resource Center of the Institute of Basic Medical Sciences, Chinese Academy of Medical Sciences) were cultured to logarithmic growth phase, then plated into 12-well plates at a cell density of 6×10^5/1 mL medium/well; MRC-5 and Caco-2 cells were cultured in Eagle's MEM medium (MEM, Gibco); A549 cells were cultured in Ham's F-12 medium (HyClone); followed by incubation overnight at 37° C., and the follow-up experiments were performed after the cells were attached to the walls. […]
(In general: Quantitative PCR measures a nucleic acid by following its amplification.)

Assay [2] can be described thus: In vivo delivery experiment of lipid nucleic acid mixture (Example 13). Further details: species or system C57 mice. Particulars: oral administration, 6 hours; for delivery effect into mouse blood and tissues (heart, spleen, kidney or intestine) compared with POPC: FIG. 117a-146b, 100 μg lipid : 1 nmol sRNA. The protocol: 1. Experiment animals: C57 mice, male, approximately 6 weeks old, 20-24g. Mice were raised in the SPF room of the Animal Center of the Institute of Basic Medical Sciences of Chinese Academy of Medical Sciences. The mice were fasted for 12 hours before intragastric administration.
2. Preparation of the mixture of lipid and small RNA: the prepration was conducted on the basis of a dose of 100 μg lipid: lnmol single stranded small RNA PGY-sRNA-26 per mouse as follows: lnmol of each sRNA was dissolved with 500 μl DEPC water in a glass tube, 100 μg corresponding lipid solution No.33, No.35,No.37, No.42, No.43, No.44, No.45, No.46, No.47, No.48, No.49, No.50, No.51, No.52, No.53, No.54, No.55, No.56, No.57, No.58, No.59, No.60, No.61, No.62, No.65, No.66, No.67, No.68, No.69 or No.70 (lipid chloroform solution with a concentration as shown in Table 1-1) was added, pipetted to mix thoroughly. The solution was heated in water bath at 90° C. for 15 min, naturally cooled down, and was administered via gavage.
1) Tissue sampling and extraction of RNA: 6 hours after gavage in mice, 500 μl of blood was taken from the eyeball, and was added 1.5 ml Trizol Reagent LS to thoroughly mix and lyse. Tissue sampling: the mouse was sarcrified by breaking its neck, and the thoracic and abdominal cavities of the mouse was exposed to remove the heart/whole spleen/two kidneys/intestine (5 cm of upper end), which was immediately added 2 ml Trizol Reagent (purchased from Invitrogen) and homogenized until complete lysis with a tissue homogenizer.
2) Reverse transcription of sRNA to cDNA: Reverse Transcription Kit (High-Capacity cDNA Reverse Transcription Kits, Applied Biosystems, cat. no. 4368813), was used to reverse transcribe the total RNA to cDNA, and the reverse system was as follows: template RNA (150 ng/μL) 10 μL, 10× RT buffer, 2.0 μL, 25× dNTP Mix (100 mM) 0.8 μL, random primers 2.0 μL, the Multi Scribe™ reverse Transcriptase 1.0 RNase inhibitor 1.0 μL, nuclease-free H2O 3.2 μL. After a brief centrifugation, the reaction was loaded in a PCR reactor. The reaction conditions were as follows: (1) 25° C., 10 min; (2) 37° C., 120 min; (3) 85° C., 5 min; (4) 4° C., termination of the reaction. After the reaction, 20 μL RNase-free ddH2O was added to make up the final volume to 40 μL.
LightCycler 480 fluorescence quantitative PCR instrument was used, and the PCR reaction conditions were: 95° C. , 5 min for pre-denaturation, followed by the PCR amplification cycle: (1) 95° C., 10 s; (2) 55° C., 10 s; (3) 72° C., 20 s; a total of 40 cycles; 40° C. for 10 s in the end to cool down. The forward primer and reverse primer of the amplification reaction were designed and synthesized by Beijing Qing Ke New Industrial Biotechnology Co., Ltd. (U6 F primer: GTGCAGGGTCCGAGGT (SEQ ID NO: 24), PGY-sRNA-26F primer: […] (SEQ ID NO: 34), reverse primer miR all rev: GTGCACGCTCCGAGGT (SEQ ID NO: 26)).
3) The relative expression amount was calculated by the 2-ΔCt method.
The data were represented in the form of mean±SEM. The parameter difference between the experimental group and the control group was evaluated by unpaired t test. The data were statistically analyzed by GraphPad Prism software, and P<0.05 was considered statistically significant.

For assay [3], the system named is MRC-5 cell (lung fibroblast). Briefly: In vitro delivery of lipid nucleic acid mixture, RT-qPCR of intracellular small RNA. The assay is classed as cell-based. The note with it: single lipid; boiling method; FIGS. 78, 92, 103. The protocol: as §1, §2, §3, §4, §5, §6, §7, §8
Where [4] appears, read: 100 μg lipid : 1 nmol sRNA per mouse, 90° C. 15 min.

With `CCCCCC/C=C\CCCCCCCC(=O)OC[C@H](COP(=O)(O)OCCN(C)C)OC(=O)CCCCCCC/C=C\CCCCCC` [No. 60, 1,2-dipalmitoleoyl-sn-glycero-3-phospho-ethanolamine-N,N-dimethyl], the “delivery of HJT-sRNA-m7 double-stranded RNA into A549 cells (real-time PCR)” value in assay [1] is on record as “delivered double-stranded RNA into A549 cells”. In addition, the “delivery effect into mouse blood and tissues (heart, spleen, kidney or intestine) compared with POPC” value in assay [2] is “significantly better than or equivalent to that of POPC”. Besides, in assay [2] (setting [4]), the “delivery of small RNA (PGY-sRNA-26) into intestine” value was “delivers small RNA”.
On the same counts, the results for `CCCCCC/C=C\CCCCCCCC(=O)OC[C@H](COP(=O)(O)OCCN(C)C)OC(=O)CCCCCCC/C=C\CCCCCCCC` [No. 62, 1-palmitoleoyl-2-oleoyl-sn-glycero-3-phospho-ethanolamine-N,N-dimethyl] are “delivered double-stranded RNA into A549 cells”, “significantly better than or equivalent to that of POPC” and “delivers small RNA”.
Turning to `CC/C=C\C/C=C\C/C=C\CCCCCCCC(=O)OC[C@@H](O)COP(=O)([O-])OCC[N+](C)(C)C` [No. 37, (2-{[(2R)-2-hydroxy-3-[(9Z,12Z,15Z)-octadeca-9,12,15-trienoyloxy]propylphosphonato]oxy}ethyl) trimethylazanium], the “delivery of HJT-sRNA-m7 single-stranded RNA into A549 cells (real-time PCR)” value in assay [1] (single lipid, boiling method, FIGS. 78, 92, 103) was “delivered single-stranded RNA into A549 and MRC-5 cells”. Moreover, the “delivery of HJT-sRNA-m7 single-stranded RNA into MRC-5 cells (real-time PCR)” value in assay [3] was “delivered single-stranded RNA into A549 and MRC-5 cells”. Besides, in assay [2], the “delivery effect into mouse blood and tissues (heart, spleen, kidney or intestine) compared with POPC” value is on record as “significantly better than or equivalent to that of POPC”. Moreover, the “delivery of small RNA (PGY-sRNA-26) into intestine” value in assay [2] (setting [4]) is given as “delivers small RNA”.
For the compound `CCCCCCCCCCCCCCCCCC(=O)OCC(COC(=O)CCCCCCCCCCCCCCCCC)OC(=O)CCCCCCCCCCCCCCC` [No. 33, 1,3-Stearin-2-Palmitin 1,3-Octadecanoyl-2-Palmitoyl-glycerol], the “delivery effect into mouse blood and tissues (heart, spleen, kidney or intestine) compared with POPC” value in assay [2] is “significantly better than or equivalent to that of POPC”. In assay [2] (setting [4]), the “delivery of small RNA (PGY-sRNA-26) into blood” value is reported as “delivers small RNA”, the “delivery of small RNA (PGY-sRNA-26) into heart” value was “delivers small RNA” and the “delivery of small RNA (PGY-sRNA-26) into kidney” value is reported as “delivers small RNA”.
In the case of `CCCCCCCCCCCCCCCCCC(=O)N[C@@H](CO)[C@H](O)CCCCCCCCCCCCCCCCC` [No. 54, C18 dihydroceramide (d20:0/18:0)], the “delivery effect into mouse blood and tissues (heart, spleen, kidney or intestine) compared with POPC” value in assay [2] is “significantly better than or equivalent to that of POPC”. In addition, in assay [2] (setting [4]), the “delivery of small RNA (PGY-sRNA-26) into blood” value is on record as “delivers small RNA” and the “delivery of small RNA (PGY-sRNA-26) into kidney” value is “delivers small RNA”.
